Where two headings read alike, the source gives them in different places.

A short description of data set [1]: Pharmacokinetic study in mini pigs after i.v. administration. Type of data set: in vivo. Particulars: female, Göttingen, pig, plasma, iv, 2 nmol/kg; read-out: Minipig iv PK, t½ (converted).
Protocol: The purpose of this study is to determine the protraction in vivo of the GLP-1 derivatives after i.v. administration to mini pigs, i.e. the prolongation of their time in the body and thereby their time of action. This was done in pharmacokinetic (PK) studies, where the terminal half-life of the derivative in question was determined. By terminal half-life is generally meant the period of time it takes to halve a certain plasma concentration, measured after the initial distribution phase.
Female Göttingen mini pigs obtained from Ellegaard Göttingen Minipigs (Dalmose, Denmark) at approximately 5 months of age and weighing approximately 10 kg were used in the studies. The mini pigs were housed in pens with straw as bedding, four to six together in each pen and fed restrictedly once or twice daily with Altromin 9023 mini pig diet (Chr. Petersen A/S, DK-4100 Ringsted). The pigs were used for repeated pharmacokinetic studies with a suitable wash-out period between successive GLP-1 derivative dosings. An acclimatisation period of 1 week was allowed during which time the mini pigs were trained to be fixated on the back for blood sampling and in slings for i.v. dosing. All handling, dosing and blood sampling of the animals was performed by trained and skilled staff.
The GLP-1 derivatives were dissolved in 50 mM sodium phosphate, 70 mM sodium chloride, 0.05% tween 80, pH 7.4 to a concentration of approximately 20 nmol/ml. Intravenous injections (the volume corresponding to usually 2 nmol/kg, for example 0.1 ml/kg) of the compounds were given as intravenous injections via a Venflon inserted in an ear vein, while the animals were placed un-anaesthetised in a sling. The dose volume was 0.1 ml/kg, and blood was sampled at predefined time points for up till 13 days post dosing (samples were taken with a syringe from a jugular vein). Blood samples (for example 0.8 ml) were collected in EDTA buffer (8 mM) and then centrifuged at 4° C. and 2000 G for 10 minutes.
Individual plasma concentration-time profiles were analysed by a non-compartmental model in WinNonlin v. […] 6.2 or 6.3 (Pharsight Inc., Mountain View, Calif., USA), or other relevant software for PK analysis, and the resulting terminal half-lives determined.
Data set [2] in a line: Pharmacokinetic studies in Beagle dogs (i.v. and p.o.). Particulars: dog, plasma; for half-life: iv, 2 nmol/kg, read-out: Beagle dogs iv PK, t½ (converted). Type of data set: in vivo.
Protocol: Pharmacokinetic (PK) studies in Beagle dogs were conducted in order to determine a) the protraction of the GLP-1 derivatives after i.v. administration, and b) the bioavailability of the GLP-1 derivatives after p.o. administration.
By protraction is meant the prolongation of the time in the body and thereby the time of action of the GLP-1 derivatives. This was done in pharmacokinetic (PK) studies, where the terminal half-life of the derivative in question was determined. By terminal half-life is generally meant the period of time it takes to halve a certain plasma concentration, measured after the initial distribution phase.
The dogs were housed in pens (12 hours light: 12 hours dark) with softwood based granules as bedding, two together in each pen and fed restrictedly once daily with […] ™ Struvite Management Diet (Dechra Veterinary Products, UK). Exercise was permitted daily, whenever possible. The dogs were used for repeated pharmacokinetic studies with a suitable wash-out period between successive GLP-1 derivative dosings. An acclimatisation period of 4 weeks was allowed during which time the dogs were trained. All handling, dosing and blood sampling of the animals was performed by trained and skilled staff. The dogs were fasted overnight before dosing and from 0 to 4 h after dosing, but had ad libitum access to water during the whole period.
The dogs were housed in social groups (12 hours light: 12 hours dark), and fed individually and restrictedly once daily with Royal Canin Medium Adult dog (Royal Canin Products, China Branch, or Brogaarden A/S, Denmark). Exercise and group social was permitted daily, whenever possible. The dogs were used for repeated pharmacokinetic studies with a suitable wash-out period between successive GLP-1 derivative dosings. An appropriate acclimatisation period was given prior to initiation of the first pharmacokinetic study. All handling, dosing and blood sampling of the animals was performed by trained and skilled staff. Before the studies the dogs were fasted overnight and from 0 to 4 h after dosing. […]
Data set [3] concerns the target T1, human GLP-1 receptor (Homo sapiens, UniProt P43220).
T1 construct: expressed in transfected cells; host or cells: membranes from BHK cells, parent line BHKTS13, clone FCW467-12A
As to the kind of experiment: In vitro potency, CRE luciferase reporter gene assay in BHK cells expressing the human GLP-1 receptor.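 Also: firefly luciferase luminescence read after 3 h incubation at 37 °C, compounds tested in an eight-point series from 0.01 pM to 100 nM.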 Particulars: average of duplicates. Type of data set: cell-based. (In general: A reporter such as luciferase makes a cellular process visible.)
Protocol: The in vitro potency is the measure of human GLP-1 receptor activation in a whole cell assay.
In vitro potency was determined by measuring the response of the human GLP-1 receptor in a reporter gene assay. The assay was performed in a stably transfected BHK cell line that expresses the human GLP-1 receptor and contains the DNA for the cAMP response element (CRE) coupled to a promoter and the gene for firefly luciferase (CRE luciferase). When the human GLP-1 receptor is activated it results in the production of cAMP, which in turn results in the luciferase protein being expressed. When assay incubation is completed the luciferase substrate (luciferin) is added and the enzyme converts luciferin to oxyluciferin to produce bioluminescence. The luminescence is measured as the readout for the assay.
An increase of the in vitro potency, EC50 value, in the presence of serum albumin would indicate an affinity to serum albumin and represents a method to predict a protracted pharmacokinetic profile of the test substance in animal models.
The cells were cultured at 5% CO2 in Cell Culture Medium. They were aliquoted and stored in liquid nitrogen. Before each assay an aliquot is taken up and washed twice in PBS before being suspended at the desired concentration in the assay specific buffer. For 96-well plates the suspension was made to give a final concentration of 5×10^3 cells/well.
Assay Medium consisted of DMEM w/o phenol red, 10 mM Hepes and 1× Glutamax. The 1% Assay Buffer consisted of 2% ovalbumin, 0.2% Pluronic F-68 and 2% HSA in Assay Medium. The 0% Assay Buffer consisted of 2% ovalbumin and 0.2% Pluronic F-68 in Assay Medium.
1) Cell stocks were thawed in a 37° C. water bath.
2) Cells were washed three times in PBS.
3) The cells were counted and adjusted to 5×10^3 cells/50 μl (1×10^5 cells/ml) in Assay Medium. A 50 μl aliquot of cells was transferred to each well in the assay plate.
4) Stocks of the test compounds and reference compounds were diluted to a concentration of 0.2 pM in 0% Assay Buffer for the 0% HSA CRE luciferase assay and 1% Assay Buffer for the 1% HSA CRE luciferase assay. […] Compounds were tested at the following final concentrations: 1×10^−7 M, 1×10^−8 M; 1×10^−9 M, 1×10^−10 M, 1×10^−11 M, 1×10^−12 M, 1×10^−13 M, and 1×10^−14 M. 6) The assay plate was incubated for 3 h in a 5% CO2 incubator at 37° C. […] 8) A 100 μl aliquot of steadylite plus reagent was added to each well of the assay plate (reagent was light sensitive). 9) Each assay plate was covered with aluminum foil to protect it from light and shaken for 30 min at room temperature. 10) Each assay plate was read in a Packard TopCount NXT instrument. Calculations and Results
The data from the TopCount instrument were transferred to GraphPad Prism software. The software performs a non-linear regression (log(agonist) vs response).
A minimum of two replicates was measured for each sample on separate assay plates. The reported values are averages of the duplicates. For some examples more than one assay was run and in this case the data reported are the averages of the averaged duplicates.

A short description of data set [4]: Pharmacodynamic (PD) study in pigs, effect on food intake. Type of data set: in vivo.
Protocol: The purpose of this experiment is to investigate the effect of the GLP-1 derivatives on food intake in pigs. This was done in a pharmacodynamic (PD) study as described below, in which food intake was measured from 1 to 4 days after administration of a single dose of the GLP-1 derivative, as compared to a vehicle-treated control group.
Female Landrace Yorkshire Duroc (LYD) pigs or Large White hybrid, approximately 3 months of age, weighing approximately 30-35 kg were used (n=3-4 per group). The animals were housed in a group for approximately 1 week during acclimatisation to the animal facilities. During the experimental period the animals were placed in individual pens at least 2 days before dosing and during the entire experiment for measurement of individual food intake.
The animals were fed ad libitum with pig fodder (Svinefoder Danish Top or HRC Sow and Weaner Diet) at all times both during the acclimatisation and the experimental period. Food intake was monitored on line by logging the weight of fodder every 15 minutes using the Mpigwin system (Ellegaard Systems, Faaborg, Denmark). Alternatively fodder was offered in the morning each day, and availability for the full 24-hour period was ensured. Any uneaten fodder was removed and weighed (manually) on the following morning, and replaced with fresh fodder.
The GLP-1 derivatives were dissolved in a phosphate buffer (50 mM sodium phosphate, 70 mM sodium chloride, 0.05% tween 80, pH 7.4) at concentrations of approximately 120 nmol/ml corresponding to doses of 3 nmol/kg. The phosphate buffer served as vehicle.
On the last day of each study, 2 or 4 days after dosing, a blood sample for measurement of plasma exposure of the GLP-1 derivative was taken from the heart in anaesthetised animals.
Food intake was calculated in 24 h intervals (0-24 h, 24-48 h, 48-72 h and 72-96 h).
Where [5] appears, read: EC50/pM (1% HSA), 1% HSA final assay concentration.

T1 sequence (P43220 24-463): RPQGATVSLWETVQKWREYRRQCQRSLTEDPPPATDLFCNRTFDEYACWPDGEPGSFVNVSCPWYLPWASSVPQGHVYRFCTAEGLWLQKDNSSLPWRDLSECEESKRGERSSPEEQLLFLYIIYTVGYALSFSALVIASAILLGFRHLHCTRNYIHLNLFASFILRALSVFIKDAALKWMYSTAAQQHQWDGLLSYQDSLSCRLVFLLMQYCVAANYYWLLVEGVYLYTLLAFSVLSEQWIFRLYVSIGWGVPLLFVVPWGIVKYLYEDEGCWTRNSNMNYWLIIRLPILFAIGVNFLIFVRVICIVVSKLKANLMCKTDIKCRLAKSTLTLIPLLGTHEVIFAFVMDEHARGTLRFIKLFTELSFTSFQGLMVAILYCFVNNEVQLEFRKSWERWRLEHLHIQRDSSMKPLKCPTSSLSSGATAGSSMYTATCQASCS

In general, bioavailability refers to the share of a dose that reaches the circulation, judged against a reference dose that is usually intravenous. A low value points to little systemic uptake. Consider `CC[C@H](C)[C@H](NC(=O)[C@H](Cc1ccccc1)NC(=O)[C@H](CCC(=O)O)NC(=O)[C@H](CCCNC(=N)N)NC(=O)[C@H](C)NC(=O)[C@H](C)NC(=O)[C@H](CCC(N)=O)NC(=O)[C@H](CCC(=O)O)NC(=O)[C@H](CCC(=O)O)NC(=O)[C@H](CC(C)C)NC(=O)[C@H](Cc1ccc(O)cc1)NC(=O)[C@H](CO)NC(=O)[C@H](CO)NC(=O)[C@@H](NC(=O)[C@H](CC(=O)O)NC(=O)[C@H](CO)NC(=O)[C@@H](NC(=O)[C@H](Cc1ccccc1)NC(=O)[C@@H](NC(=O)CNC(=O)[C@H](CCC(=O)O)NC(=O)C(C)(C)NC(=O)[C@@H](N)Cc1c[nH]cn1)[C@@H](C)O)[C@@H](C)O)C(C)C)C(=O)N[C@@H](C)C(=O)N[C@@H](Cc1c[nH]c2ccccc12)C(=O)N[C@@H](CC(C)C)C(=O)N[C@H](C(=O)N[C@@H](CCCNC(=N)N)C(=O)NCC(=O)N[C@@H](CCCCNC(=O)COCCOCCNC(=O)COCCOCCNC(=O)CC[C@H](NC(=O)CCCCCCCCCCOc1ccc(C(=O)O)cc1)C(=O)O)C(=O)N[C@@H](CCCCNC(=O)COCCOCCNC(=O)COCCOCCNC(=O)CC[C@H](NC(=O)CCCCCCCCCCOc1ccc(C(=O)O)cc1)C(=O)O)C(=O)O)C(C)C` [Example 1, N{Epsilon-36}-[2-[2-[2-[[2-[2-[2-[[(4S)-4-carboxy-4-[11-(4-carboxyphenoxy)undecanoylamino]butanoyl]amino]ethoxy]ethoxy]acetyl]amino]ethoxy]ethoxy]acetyl], N{Epsilon-37}-[2-[2-[2-[[2-[2-[2-[[(4S)-4-carboxy-4-[11-(4-carboxyphenoxy)undecanoylamino]butanoyl]amino]ethoxy]ethoxy]acetyl]amino]ethoxy]ethoxy]acetyl]-[Aib8,Glu22,Arg26,Arg34,Lys36,Lys37]-GLP-1-(7-37)-peptide], for which the values for the half-life in data set [1] and in data set [2] were 4.29 days and 3.54 days, respectively. This compound also yielded a bioavailability in data set [2] (po, absolute bioavailability (F), enteric coated sodium caprate tablet with approximately 10 mg derivative (Example 33)) of 2.4%. Besides, the EC50 is 1.2 pM in data set [3] (EC50/pM (0% HSA), 0% HSA) and 136 pM in data set [3] (setting [5]).

Regarding `CC[C@H](C)[C@H](NC(=O)[C@H](Cc1ccccc1)NC(=O)[C@H](CCC(=O)O)NC(=O)[C@H](CCCNC(=N)N)NC(=O)[C@H](C)NC(=O)[C@H](C)NC(=O)[C@H](CCC(N)=O)NC(=O)[C@H](CCC(=O)O)NC(=O)[C@H](CCC(=O)O)NC(=O)[C@H](CC(C)C)NC(=O)[C@H](Cc1ccc(O)cc1)NC(=O)[C@H](CO)NC(=O)[C@H](CO)NC(=O)[C@@H](NC(=O)[C@H](CC(=O)O)NC(=O)[C@H](CO)NC(=O)[C@@H](NC(=O)[C@H](Cc1ccccc1)NC(=O)[C@@H](NC(=O)CNC(=O)[C@H](CCC(=O)O)NC(=O)C(C)(C)NC(=O)[C@@H](N)Cc1c[nH]cn1)[C@@H](C)O)[C@@H](C)O)C(C)C)C(=O)N[C@@H](C)C(=O)N[C@@H](Cc1c[nH]c2ccccc12)C(=O)N[C@@H](CC(C)C)C(=O)N[C@H](C(=O)N[C@@H](CCCNC(=N)N)C(=O)NCC(=O)N[C@@H](CCCCNC(=O)COCCOCCNC(=O)COCCOCCNC(=O)CC[C@H](NC(=O)CCCCCCCCCOc1cccc(C(=O)O)c1)C(=O)O)C(=O)N[C@@H](CCCCNC(=O)COCCOCCNC(=O)COCCOCCNC(=O)CC[C@H](NC(=O)CCCCCCCCCOc1cccc(C(=O)O)c1)C(=O)O)C(=O)O)C(C)C` [Example 15, N{Epsilon-36}-[2-[2-[2-[[2-[2-[2-[[(4S)-4-carboxy-4-[10-(3-carboxyphenoxy)decanoylamino]butanoyl]amino]ethoxy]ethoxy]acetyl]amino]ethoxy]ethoxy]acetyl], N{Epsilon-37}-[2-[2-[2-[[2-[2-[2-[[(4S)-4-carboxy-4-[10-(3-carboxyphenoxy)decanoylamino]butanoyl]amino]ethoxy]ethoxy]acetyl]amino]ethoxy]ethoxy]acetyl]-[Aib8,Glu22,Arg26,Arg34,Lys36,Lys37]-GLP-1-(7-37)-peptide], the figures for the half-life in data set [1] and in data set [2] were 6 days and 4.62 days, respectively. The EC50 in data set [3] (EC50/pM (0% HSA), 0% HSA) is 6.1 pM; in data set [3] (setting [5]), 44 pM.

As for `CC[C@H](C)[C@H](NC(=O)[C@H](Cc1ccccc1)NC(=O)[C@H](CCC(=O)O)NC(=O)[C@H](CCCNC(=N)N)NC(=O)[C@H](C)NC(=O)[C@H](C)NC(=O)[C@H](CCC(N)=O)NC(=O)[C@H](CCC(=O)O)NC(=O)[C@H](CCC(=O)O)NC(=O)[C@H](CC(C)C)NC(=O)[C@H](Cc1ccc(O)cc1)NC(=O)[C@H](CO)NC(=O)[C@H](CO)NC(=O)[C@@H](NC(=O)[C@H](CC(=O)O)NC(=O)[C@H](CO)NC(=O)[C@@H](NC(=O)[C@H](Cc1ccccc1)NC(=O)[C@@H](NC(=O)CNC(=O)[C@H](CCC(=O)O)NC(=O)C(C)(C)NC(=O)[C@@H](N)Cc1c[nH]cn1)[C@@H](C)O)[C@@H](C)O)C(C)C)C(=O)N[C@@H](C)C(=O)N[C@@H](Cc1c[nH]c2ccccc12)C(=O)N[C@@H](CC(C)C)C(=O)N[C@H](C(=O)N[C@@H](CCCNC(=N)N)C(=O)NCC(=O)N[C@@H](CCCCNC(=O)COCCOCCNC(=O)COCCOCCNC(=O)COCCOCCNC(=O)COCCOCCNC(=O)CC[C@H](NC(=O)CCCCCCCCCCCCC(=O)O)C(=O)O)C(=O)N[C@@H](CCCCNC(=O)COCCOCCNC(=O)COCCOCCNC(=O)COCCOCCNC(=O)COCCOCCNC(=O)CC[C@H](NC(=O)CCCCCCCCCCCCC(=O)O)C(=O)O)C(=O)O)C(C)C` [Example 20], the EC50 in data set [3] (0% HSA, read-out: EC50/pM (0% HSA)) was 2.7 pM; in data set [3] (setting [5]), 5.8 pM. Further, in data set [4] (single s.c. dose 3 nmol/kg, 0-24 h, NS = not significantly different from vehicle), the “PD in pig, food intake (% of vehicle) for hours 0-24” value is reported as 10 % of vehicle. Also, in data set [4] (single s.c. dose 3 nmol/kg, 24-48 h, NS = not significantly different from vehicle), the “PD in pig, food intake (% of vehicle) for hours 24-48” value was 18 % of vehicle. Besides, the “PD in pig, food intake (% of vehicle) for hours 48-72” value in data set [4] (single s.c. dose 3 nmol/kg, 48-72 h, NS = not significantly different from vehicle) is 65 % of vehicle. The “PD in pig, food intake (% of vehicle) for hours 72-96” value in data set [4] (single s.c. dose 3 nmol/kg, 72-96 h, NS = not significantly different from vehicle) is listed as 81^NS % of vehicle. Moreover, the “reduction in food intake (in words)” value in data set [4] (single s.c. injection in pigs) is on record as “largest reduction in food intake”.
